Laboratory results: the supplement of paper PMC11061612

Assays:
Test in all cases: combination Emax (second highest fraction inhibited in the dose matrix, 72 h); higher = more inhibition; extreme values may be limits of the assay
[1] = test system: SU-DHL-8 (B-Cell Non-Hodgkin's Lymphoma)
Procedure, shortened: (§1)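 Bliss excess equals the observed combination effect minus the expected value EA + EB − EA·EB, where EA and EB are the effects of each agent alone. Combination Emax is the second-highest inhibition within the matrix. Inhibition was scaled from CellTiter-Glo 2.0 luminescence, with 0 set by vehicle wells and 1 by blank wells, after 72 hours of two-drug dosing of cells plated in 1536-well plates.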

[2] = test system: SW1417 (Colorectal Carcinoma)
Procedure, shortened: as §1

[3] = test system: KARPAS-45 (T-Lymphoblastic Leukemia)
Procedure, shortened: as §1

[4] = test system: TE-6 (Esophageal Squamous Cell Carcinoma)
Procedure, shortened: as §1

LN-18 (Glioblastoma) = test system: LN-18 (Glioblastoma)
Procedure, shortened: as §1

[5] = test system: SR (Other Blood Carcinomas)
Procedure, shortened: as §1

TC-71 (Ewing's Sarcoma) = test system: TC-71 (Ewing's Sarcoma)
Procedure, shortened: as §1

MEL-JUSO (Melanoma) = test system: MEL-JUSO (Melanoma)
Procedure, shortened: as §1

ES8 (Ewing's Sarcoma) = test system: ES8 (Ewing's Sarcoma)
Procedure, shortened: as §1

[6] = test system: DiFi (Colorectal Carcinoma)
Procedure, shortened: as §1

[7] = test system: MFM-223 (Breast Carcinoma)
Procedure, shortened: as §1

[8] = test system: MS751 (Cervical Carcinoma)
Procedure, shortened: as §1

[9] = test system: L-540 (Hodgkin's Lymphoma)
Procedure, shortened: as §1

[10] = test system: HL-60 (Acute Myeloid Leukemia)
Procedure, shortened: as §1

[11] = test system: GR-ST (B-Lymphoblastic Leukemia)
Procedure, shortened: as §1

ES1 (Ewing's Sarcoma) = test system: ES1 (Ewing's Sarcoma)
Procedure, shortened: as §1

[12] = test system: SW837 (Colorectal Carcinoma)
Procedure, shortened: as §1

[13] = test system: MOLT-16 (T-Lymphoblastic Leukemia)
Procedure, shortened: as §1

[14] = test system: TOV-112D (Ovarian Carcinoma)
Procedure, shortened: as §1

SMILES | combination Emax [1] | combination Emax [2] | combination Emax [3] | combination Emax [4] | combination Emax (LN-18 (Glioblastoma)) | combination Emax [5] | combination Emax (TC-71 (Ewing's Sarcoma)) | combination Emax (MEL-JUSO (Melanoma)) | combination Emax (ES8 (Ewing's Sarcoma)) | combination Emax [6] | combination Emax [7] | combination Emax [8] | combination Emax [9] | combination Emax [10] | combination Emax [11] | combination Emax (ES1 (Ewing's Sarcoma)) | combination Emax [12] | combination Emax [13] | combination Emax [14]
NC1(C(=O)N[C@@H](CCO)c2ccc(Cl)cc2)CCN(c2ncnc3[nH]ccc23)CC1 [Capivasertib] + CCN(CCO)CCCOc1ccc2c(Nc3cc(CC(=O)Nc4cccc(F)c4)[nH]n3)ncnc2c1 [AZD2811] (first compound max 10 µM, 7x7, partner max 1 µM) | 0.324 | 0.278 | 0.979 | 0.673 | 0.597 | 0.957 | 0.854 | 0.274 | 1 | 0.658 | 0.918 | 0.632 | 0.361 | 0.859 | 0.702 | 0.905 | 0.261 | 1 | 0.42
COc1nnc2ccc(N3CCC(c4ccc(OCCN5CCN(C)C(=O)[C@H]5C)cc4)CC3)nn12 [AZD5153] + CC1(C)CCC(CN2CCN(c3ccc(C(=O)NS(=O)(=O)c4ccc(NCC5CCOCC5)c([N+](=O)[O-])c4)c(Oc4cnc5[nH]ccc5c4)c3)CC2)=C(c2ccc(Cl)cc2)C1 [Venetoclax] (first compound max 1 µM, 7x7, partner max 1 µM) | 0.663 | 0.463 | 1 | 0.572 | 0.638 | 0.749 | 0.657 | 0.215 | 0.719 | 0.586 | 0.305 | 0.702 | 0.755 | 0.99 | 0.788 | 0.482 | 0.551 | 1 | 0.588
CC(=O)c1c(C)c2cnc(Nc3ccc(N4CCNCC4)cn3)nc2n(C2CCCC2)c1=O [Palbociclib] + CC1(C)CCC(CN2CCN(c3ccc(C(=O)NS(=O)(=O)c4ccc(NCC5CCOCC5)c([N+](=O)[O-])c4)c(Oc4cnc5[nH]ccc5c4)c3)CC2)=C(c2ccc(Cl)cc2)C1 [Venetoclax] (first compound max 10 µM, 7x7, partner max 1 µM) | 0.37 | 0.147 | 1 | 0.264 | 0.383 | 0.94 | 0.272 | 0.143 | 0.461 | 0.47 | 0.346 | 0.128 | 0.257 | 0.736 | 0.715 | 0.56 | 0.0079 | 0.985 | 0.443
COc1nnc2ccc(N3CCC(c4ccc(OCCN5CCN(C)C(=O)[C@H]5C)cc4)CC3)nn12 [AZD5153] + Cn1cnc2c(F)c(Nc3ccc(Br)cc3Cl)c(C(=O)NOCCO)cc21 [Selumetinib] (first compound max 1 µM, 7x7, partner max 10 µM) | 0.955 | 0.778 | 1 | 0.711 | 0.721 | 0.675 | 0.762 | 0.59 | 0.681 | 0.962 | 0.507 | 0.849 | 0.628 | 0.966 | 0.782 | 0.458 | 0.753 | 0.949 | 0.684
COc1nnc2ccc(N3CCC(c4ccc(OCCN5CCN(C)C(=O)[C@H]5C)cc4)CC3)nn12 [AZD5153] + C[C@@H]1COCCN1C2=NC(=NC(=C2)C3(CC3)[S@](=N)(=O)C)C4=C5C=CNC5=NC=C4 [AZD6738] (first compound max 1 µM, 7x7, partner max 10 µM) | 0.996 | 0.662 | 1 | 0.79 | 0.815 | 0.937 | 0.997 | 0.502 | 0.907 | 0.844 | 0.734 | 0.911 | 0.913 | 0.985 | 0.846 | 0.918 | 0.756 | 1 | 0.849
CC(=O)c1c(C)c2cnc(Nc3ccc(N4CCNCC4)cn3)nc2n(C2CCCC2)c1=O [Palbociclib] + Cn1cnc2c(F)c(Nc3ccc(Br)cc3Cl)c(C(=O)NOCCO)cc21 [Selumetinib] (first compound max 10 µM, 7x7, partner max 10 µM) | 0.32 | 0.512 | 0.964 | 0.425 | 0.359 | 0.873 | 0.396 | 0.425 | 0.823 | 0.751 | 0.317 | 0.236 | 0.25 | 0.667 | 0.726 | 0.616 | 0.532 | 0.827 | 0.473
C[C@@H](c1ccc2nccn2c1)n1nnc2ncc(-c3cnn(C)c3)nc21 [Savolitinib] + CC1(C)CCC(CN2CCN(c3ccc(C(=O)NS(=O)(=O)c4ccc(NCC5CCOCC5)c([N+](=O)[O-])c4)c(Oc4cnc5[nH]ccc5c4)c3)CC2)=C(c2ccc(Cl)cc2)C1 [Venetoclax] (first compound max 1 µM, 7x7, partner max 1 µM) | 0.288 | 0.126 | 0.322 | 0.124 | 0.146 | 0.437 | 0.119 | 0.126 | 0.259 | 0.11 | 0.0596 | 0.176 | 0.246 | 0.658 | 0.218 | 0.113 | 0.14 | 0.58 | 0.0298
COc1nnc2ccc(N3CCC(c4ccc(OCCN5CCN(C)C(=O)[C@H]5C)cc4)CC3)nn12 [AZD5153] + C=CCn1c(=O)c2cnc(Nc3ccc(N4CCN(C)CC4)cc3)nc2n1-c1cccc(C(C)(C)O)n1 [AZD1775] (first compound max 1 µM, partner max 1 µM) | 0.994 | 0.601 | 1 | 0.731 | 0.649 | 0.96 | 0.935 | 0.491 | 0.779 | 0.727 | 0.538 | 0.935 | 0.925 | 0.932 | 0.832 | 0.686 | 0.715 | 1 | 0.815
C[C@@H](c1ccc2nccn2c1)n1nnc2ncc(-c3cnn(C)c3)nc21 [Savolitinib] + Cc1c2c(nn1C)CSCc1cc(n(C)n1)CSc1cc(c3ccccc3c1)OCCCc1c(C(=O)O)n(C)c3c-2c(Cl)ccc13 [AZD5991] (first compound max 1 µM, 7x7, partner max 1 µM) | 0.697 | 0.161 | 0.882 | 0.308 | 0.202 | 0.772 | 0.412 | 0.183 | 0.292 | 0.257 | 0.244 | 0.773 | 0.975 | 1 | 0.145 | 0.743 | 0.124 | 1 | 0.395
Cn1cnc2c(F)c(Nc3ccc(Br)cc3Cl)c(C(=O)NOCCO)cc21 [Selumetinib] + C=CCn1c(=O)c2cnc(Nc3ccc(N4CCN(C)CC4)cc3)nc2n1-c1cccc(C(C)(C)O)n1 [AZD1775] (first compound max 10 µM, partner max 1 µM) | 1 | 0.704 | 0.909 | 0.506 | 0.461 | 0.978 | 0.355 | 0.604 | 0.491 | 0.849 | 0.446 | 0.575 | 0.905 | 0.712 | 0.801 | 0.602 | 0.549 | 1 | 0.48
COc1nnc2ccc(N3CCC(c4ccc(OCCN5CCN(C)C(=O)[C@H]5C)cc4)CC3)nn12 [AZD5153] + CN(CC[C@H](CSC1=CC=CC=C1)NC2=C(C=C(C=C2)S(=O)(=O)NC(=O)C3=CC=C(C=C3)N4CCC(CC4)[C@H](C5=CC=CC=C5C6=CC=C(C=C6)Cl)O)S(=O)(=O)C(F)(F)F)CCO [AZD4320] (first compound max 1 µM, 7x7, partner max 1 µM) | 1 |  | 1 | 0.81 | 0.605 |  | 0.814 | 0.3 |  | 0.818 | 0.544 | 0.726 |  | 0.994 |  |  |  | 1 | 0.664
CC(=O)c1c(C)c2cnc(Nc3ccc(N4CCNCC4)cn3)nc2n(C2CCCC2)c1=O [Palbociclib] + CN(CC[C@H](CSC1=CC=CC=C1)NC2=C(C=C(C=C2)S(=O)(=O)NC(=O)C3=CC=C(C=C3)N4CCC(CC4)[C@H](C5=CC=CC=C5C6=CC=C(C=C6)Cl)O)S(=O)(=O)C(F)(F)F)CCO [AZD4320] (first compound max 10 µM, 7x7, partner max 1 µM) | 1 |  | 1 | 0.363 | 0.517 |  | 0.828 | 0.356 |  | 0.812 | 0.406 | 0.159 |  | 0.956 |  |  |  | 1 | 0.584
C[C@@H](c1ccc2nccn2c1)n1nnc2ncc(-c3cnn(C)c3)nc21 [Savolitinib] + CN(CC[C@H](CSC1=CC=CC=C1)NC2=C(C=C(C=C2)S(=O)(=O)NC(=O)C3=CC=C(C=C3)N4CCC(CC4)[C@H](C5=CC=CC=C5C6=CC=C(C=C6)Cl)O)S(=O)(=O)C(F)(F)F)CCO [AZD4320] (first compound max 1 µM, 7x7, partner max 1 µM) | 0.932 |  | 0.976 | 0.427 | 0.163 |  | 0.585 | 0.257 |  | 0.495 | 0.225 | 0.184 |  | 0.856 |  |  |  | 1 | 0.0682
